# Assays:
# [1] = system: H460T CD24−/lowCD44+ and CD24highCD44+ cells; experiment: Differential drug response of sorted H460T populations; format: cell-based, human
# From the text: H460 cells were obtained from the American Type Culture Collection (ATCC) in Manassas, Va., United States of America. The H460 cell line was derived from the pleural fluid of a patient with large cell cancer of the lung (Gazdar et al., Science, 1989, 246: 491494). HCC2429 cells were obtained from J. Minna. See Haruki et al., J. Med. Genet., 2005, 42(7):558-64. […] Higher-passage cells are referred to as H460T to distinguish them from the low-passage H460 that were originally obtained from ATCC. All cells were incubated at 37° Celsius with 5.0% carbon dioxide (CO2). H460T cells were cultured in RPMI-1640 (GIBCO®, available from Invitrogen of Carlsbad, Calif., USA). See Moore et al., JAMA, 1967, 199: 519-524, 10% fetal bovine serum (FBS, GIBCO®, available from Invitrogen of Carlsbad, Calif., USA), 2 mM additional glutamine, 100 IU/mipenicillin, 100 μg/ml streptomycin, 1 mM sodium pyruvate, 0.1% sodium bicarbonate, 045% additional glucose, and 10 mM 4-(2-hydroxyethyl)-1-piperazineethanesulfonic acid (HEPES). HCC2429 cells were cultured in RPMI-1640, 10% FBS, 2 mM additional glutamine, 100 IU/ml penicillin, 100 μg/ml streptomycin. Karyotyping and short tandem repeat (STR) analysis of H460T confirmed its H460 origin, however the Y chromosome was absent in H460T cells and present in most H460 cells. […]
# [2] = system: 5T4; experiment: Anti-5T4 immunoblot of sorted cells treated with all-trans retinoic acid; format: cell-based, human; conditions: CD24−/lowCD44+ cells; 10 μM; 72 hours; 0.5% FBS medium; FIG. 6B
# Method: To determine 5T4 expression under conditions of growth and differentiation, cells were harvested at several time points, and protein extracts were subjected to immunoblot analysis. Cells were washed with PBS and lysed in 0.5% v/v NP40 in 25 mM Tris-buffered saline pH 7.4 (TBS). After protein estimation (MICROBCA™ Protein Assay Kit, Pierce of Rockford, Ill., USA), the lysates were mixed with non-reducing Laemmli sample buffer (Biorad of Hercules, Calif., USA) and 10 μg samples were loaded in each well of a non-reducing 4-20% polyacrylamide gradient gel (NOVEX®, available from Invitrogen of Carlsbad, Calif., USA). The samples were run for two to three hours at 125 volts and transferred to a PVDF (polyvinylidene fluoride) membrane by means of a Novex® electrophoresis transfer system. The membrane was blocked overnight with 5% milk in Tris-buffered saline Tween-20 (TBST) with 1% goat serum, probed with anti-5T4 antibody H8 at 1 μg/ml in 5% milk in TBST, washed and probed with HRP conjugated goat anti-mulgG at 1:5,000 dilution. The ECL detection system was used (Amersham of Burlington, Mass., USA).
# To further assess 5T4 expression in tumor cell lines, sorted cells were treated with all-trans retinoic acid to induce differentiation and then subjected to immunoblot analysis. […]
# [3] = system: 60274 xenografts; experiment: Tumor regression of NSCLC primary implant xenografts, line 60274; format: in vivo, mice; conditions: maximum tolerable dose
# Method: Nude (for 37622) or nod-scid (for 60274) mice were injected subcutaneously between the shoulder blades with fragments of low-passage primary implants. When the tumors reached the mass of 0.2 to 0.5 g, the tumors were staged to ensure uniformity of the tumor mass between various treatment groups prior to the administration of therapy. Anti-5T4 huH8 antibody and anti-CD33 p67.6 antibody were conjugated to calicheamicin via an amide linker as described (Hamann et al., Bioconug. Chem., 2002, 13: 40-46). The “amide” linker restricts the release of calicheamicin to cells that internalize the antibody-drug conjugate (Hamann et al., Bioconug. Chem., 2002, 13: 40-46). […] Tumors were measured at least once a week and their mass was as volume=0.5×(tumor width^2)(tumor length). Mean tumor volume (±SEM) for each treatment group was calculated and compared to the vehicle-treated group for statistical significance using a one-sided t-test, with the error term for the t-test based on the pooled variance across all treatment groups. Tumor values for each treatment group were recorded up to 120 days after the initiation of treatment or until either tumor-bearing mice died or the tumors grew to 15% of the body weight at which time these mice were euthanized according to institutional regulations.
# [4] = system: H460T CD24−/lowCD44+ and CD24highCD44+ cells; experiment: Colony formation (clonogenic) assay on sorted cells; format: cell-based, human; conditions: 72 hours drug exposure, 200 cells replated, colonies after 8 days; FIG. 10B
# Method: To perform a colony formation assay, cells were seeded in 24 well plate at a density of 5,000 cells per well. Twenty-four hours after seeding the cells were exposed to various concentrations of (0.000097, 0.000390, 0.00156, 0.00625, 0.025, 0.1, 0.4 ng calicheamicin equivalents/ml) of anti-5T4 H8-AcBut conjugate, anti-CD22 AcBut conjugate, or calicheamicin alone. Seventy-two hours after the drug exposure, cells were trypsinized, counted and 200 cells were plated in 6 well plates. After 8 days, the colonies were fixed and stained with methylene blue. The number of colonies per well was counted using a Stereoscope.
# [5] = system: H460T CD24−/lowCD44+ and CD24highCD44+ cells; experiment: Four-day MTS cell viability assay on sorted cells; format: cell-based, human; conditions: 96 hours of drug exposure, FIG. 10A
# Method: The CD24^−/lowCD44^+ population was more sensitive to an anti-5T4 antibody-drug conjugate than the CD24^highCD44^+ population in an cell viability assay and a colony growth assay. For each assay, antibody-calicheamicin AcBut-linked (AcBut-AcBut-[4-(4-acetylphenoxy) butanoic acid]) conjugates were prepared as described (Hamann et al., Bioconjug. Chem., 2002, 13: 47-58). The effect of anti-5T4 huH8 antibody-drug conjugate or anti-CD22 antibody-drug conjugate on sorted cells was assessed using a cellular viability indicator ((3-(4,5-dimethylthiazol-2-yl)-5([…])-2-(4-sulfophenyl)-2H-tetrazolium (MTS) (Promega of Madison, Wis., USA) to determine the number of surviving cells following exposure to the drug treatment. Cells were sorted 18 hours prior to start of assay. Cells were seeded in 96-well microtiter plates at a density of 10000 cells per well and exposed to various concentrations of the drug. Following determination of the number of viable cells surviving 96 hours of drug exposure, the IC50 of each treatment was calculated based on the logistic regression parameters derived from the dose-response curves. IC50 values were calculated by logistic non-linear regression and are reported as the calicheamicin dimethyl hydrazide (CalichDMH) concentration from each treatment group that causes 50% loss of cell viability.
compound,measurement,setting,value
O=c1[nH]cc(F)c(=O)[nH]1 [5-fluoruracil],response of CD24−/lowCD44+ versus CD24highCD44+ populations,[1],responded equally
CC1=C(/C=C/C(C)=C/C=C/C(C)=C/C(=O)O)C(C)(C)CCC1 [all-trans retinoic acid],5T4 expression (immunoblot),[2],dramatically reduced
CC[C@@]1(O)C(=O)OCc2c1cc1n(c2=O)Cc2cc3ccccc3nc2-1 [camptothecin],response of CD24−/lowCD44+ versus CD24highCD44+ populations,[1],responded equally
N.N.[Cl][Pt][Cl] [cisplatin],tumor size of 60274 xenografts,[3]; FIG. 12C,reduced tumor size transiently
same,regrowth of 60274 tumors,[3]; after completion of the dosing regimen,quickly regrew
calicheamicin,sensitivity of CD24−/lowCD44+ cells versus CD24highCD44+ cells (number of colonies),[4],No difference between the two populations
same,sensitivity of CD24−/lowCD44+ cells versus CD24highCD44+ cells (IC50 as CalichDMH concentration),[5],No difference between the two populations

# From US9340774B2, “Tumor-initiating cells and methods for using same” (Wyeth LLC, priority 2009, dated 2016)
